From US12077503B2, “Substituted cyclic amides and their use as herbicides” (FMC CORPORATION, priority 2015, dated 2024)

Assays:
Format in all cases: in vivo
[1] = test system: barnyardgrass (Echinochloa crus-galli); assay: Test B flooded paddy test; conditions: Echinochloa crus-galli, 250 g ai/ha, Flood; 0 to 100 scale where 0 is no effect and 100 is complete control; read-out: Barnyardgrass plant response rating
How it was run: (§1)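 Rating scale 0–100 (visual, vs untreated controls) after a 13–15 d greenhouse period; application to the flood layer, 3 cm above soil and maintained; plants at 2-leaf stage when treated.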

[2] = test system: sedge, umbrella (small-flower umbrella sedge, Cyperus difformis); assay: Test B flooded paddy test; conditions: Cyperus difformis, 250 g ai/ha, Flood; 0 to 100 scale where 0 is no effect and 100 is complete control; read-out: Sedge, Umbrella plant response rating
How it was run: as §1

rice (Oryra sativa) = assay: Test B flooded paddy test; conditions: Oryza sativa, 250 g ai/ha, Flood; 0 to 100 scale where 0 is no effect and 100 is complete control; read-out: Rice plant response rating
How it was run: as §1

[3] = test system: ducksalad (Heteranthera limosa); assay: Test B flooded paddy test; conditions: Heteranthera limosa, 250 g ai/ha, Flood; 0 to 100 scale where 0 is no effect and 100 is complete control; read-out: Ducksalad plant response rating
How it was run: as §1

[4] = test system: ryegrass, Italian (Italian ryegrass, Lolium multiflorum); assay: Test A postemergence; conditions: Lolium multiflorum, post-emergence, 240 h
How it was run: (§2)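 Each rating is a visual injury score from 0 to 100 given about 10 d after treatment, judged against untreated controls kept alongside in the greenhouse. In loam soil–sand blend, seeds got a preemergence directed soil spray, while postemergence plants were 2 to 10 cm tall at spraying.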

[5] = test system: giant foxtail (Setaria faberii); assay: Test A postemergence; conditions: Setaria faberi, post-emergence, 240 h
How it was run: as §2

[6] = test system: barnyardgrass (Echinochloa crus-galli); assay: Test A postemergence; conditions: Echinochloa crus-galli, post-emergence, 240 h
How it was run: as §2

[7] = test system: pigweed (Amaranthus retroflexus); assay: Test A postemergence; conditions: Amaranthus retroflexus, post-emergence, 240 h
How it was run: as §2

Kochia (Kochia scoparia) [8] = assay: Test A postemergence; conditions: Bassia scoparia, post-emergence, 240 h
How it was run: as §2

[9] = test system: blackgrass (Alopecurus myosuroides); assay: Test A postemergence; conditions: Alopecurus myosuroides, post-emergence, 240 h
How it was run: as §2

[10] = test system: ragweed (common ragweed, Ambrosia elatior); assay: Test A postemergence; conditions: Ambrosia artemisiifolia, post-emergence, 240 h
How it was run: as §2

[11] = test system: Galium (catchweed bedstraw, Galium aparine); assay: Test A postemergence; conditions: Galium, post-emergence, 240 h
How it was run: as §2

corn (Zea mays) = assay: Test A postemergence; conditions: Zea mays, post-emergence, 240 h
How it was run: as §2

[12] = test system: wheat (Triticum aestivum); assay: Test A postemergence; conditions: Triticum aestivum, post-emergence, 240 h
How it was run: as §2

[13] = test system: ryegrass, Italian (Italian ryegrass, Lolium multiflorum); assay: Test A preemergence; conditions: Lolium multiflorum, pre-emergence, 240 h, 0 to 100 scale where 0 is no effect and 100 is complete control, read-out: Ryegrass, Italian plant response rating
How it was run: as §2

[14] = test system: giant foxtail (Setaria faberii); assay: Test A preemergence; conditions: Setaria faberi, pre-emergence, 240 h, 0 to 100 scale where 0 is no effect and 100 is complete control, read-out: Foxtail, Giant plant response rating
How it was run: as §2

[15] = test system: barnyardgrass (Echinochloa crus-galli); assay: Test A preemergence; conditions: Echinochloa crus-galli, pre-emergence, 240 h, 0 to 100 scale where 0 is no effect and 100 is complete control, read-out: Barnyardgrass plant response rating
How it was run: as §2

[16] = test system: pigweed (Amaranthus retroflexus); assay: Test A preemergence; conditions: Amaranthus retroflexus, pre-emergence, 240 h, 0 to 100 scale where 0 is no effect and 100 is complete control, read-out: Pigweed plant response rating
Kochia (Kochia scoparia) [17] = assay: Test A preemergence; conditions: Bassia scoparia, pre-emergence, 240 h, 0 to 100 scale where 0 is no effect and 100 is complete control, read-out: Kochia plant response rating
How it was run: as §2

[18] = test system: ragweed (common ragweed, Ambrosia elatior); assay: Test A preemergence; conditions: Ambrosia artemisiifolia, pre-emergence, 240 h, 0 to 100 scale where 0 is no effect and 100 is complete control, read-out: Ragweed plant response rating
How it was run: as §2

[19] = 125 g ai/ha, preemergence, approx. 10 d

CN1C[C@H](c2ccc(Cl)cc2)[C@@H](C(=O)Nc2ccc(F)c(F)c2F)C1=O [Compound 1144]
50%: pest or weed control at 31 g/ha (Kochia (Kochia scoparia) [8]; Postemergence, 31 g ai/ha, visual injury after approx. 10 d, 0 to 100 scale, 0 no effect, 100 complete control, read-out: Plant response rating, Kochia) | plant injury at 125 g/ha (corn (Zea mays); 125 g ai/ha, postemergence, visual injury on 0 to 100 scale (0 no effect, 100 complete control), approx. 10 d, read-out: Corn plant response rating) | plant injury at 125 g/ha ([12]; 125 g ai/ha, postemergence, visual injury vs untreated controls after approx. 10 d, 0 = no effect, 100 = complete control, read-out: Wheat plant response rating (0 to 100 scale)) | pest or weed control at 31 g/ha ([13]; 31 g ai/ha, Preemergence) | pest or weed control at 125 g/ha [13, 19] | pest or weed control at 31 g/ha (Kochia (Kochia scoparia) [17]; 31 g ai/ha, Preemergence)
20%: pest or weed control at 250 g/ha (rice (Oryra sativa)) | pest or weed control at 31 g/ha ([10]; Postemergence, 31 g ai/ha, visual injury after approx. 10 d, 0 to 100 scale, 0 no effect, 100 complete control, read-out: Plant response rating, Ragweed) | Corn plant response rating (crop injury, 0 = no effect, 100 = complete kill) at 31 g/ha (corn (Zea mays); Postemergence, 31 g ai/ha, visual injury after approx. 10 d, 0 to 100 scale, 0 no effect, 100 complete control) | pest or weed control at 125 g/ha [18, 19]
0%: pest or weed control at 250 g/ha [2] | pest or weed control at 31 g/ha ([7]; Postemergence, 31 g ai/ha, visual injury after approx. 10 d, 0 to 100 scale, 0 no effect, 100 complete control, read-out: Plant response rating, Pigweed) | pest or weed control at 31 g/ha ([9]; Postemergence, 31 g ai/ha, visual injury after approx. 10 d, 0 to 100 scale, 0 no effect, 100 complete control, read-out: Plant response rating, Blackgrass) | pest or weed control at 31 g/ha ([11]; Postemergence, 31 g ai/ha, visual injury after approx. 10 d, 0 to 100 scale, 0 no effect, 100 complete control, read-out: Plant response rating, Galium) | pest or weed control at 31 g/ha ([18]; 31 g ai/ha, Preemergence)
30%: pest or weed control at 31 g/ha ([4]; Postemergence, 31 g ai/ha, visual injury after approx. 10 d, 0 to 100 scale, 0 no effect, 100 complete control, read-out: Plant response rating, Ryegrass, Italian) | pest or weed control at 125 g/ha ([7]; 125 g ai/ha, postemergence, visual injury vs untreated controls after approx. 10 d, 0 = no effect, 100 = complete control, read-out: Pigweed plant response rating (0 to 100 scale)) | plant injury at 31 g/ha ([12]; Postemergence, 31 g ai/ha, visual injury after approx. 10 d, 0 to 100 scale, 0 no effect, 100 complete control, read-out: Plant response rating, Wheat) | pest or weed control at 31 g/ha ([16]; 31 g ai/ha, Preemergence)
70%: pest or weed control at 125 g/ha (Kochia (Kochia scoparia) [8]; 125 g ai/ha, postemergence, visual injury on 0 to 100 scale (0 no effect, 100 complete control), approx. 10 d, read-out: Kochia plant response rating) | pest or weed control at 125 g/ha ([10]; 125 g ai/ha, postemergence, visual injury vs untreated controls after approx. 10 d, 0 = no effect, 100 = complete control, read-out: Ragweed plant response rating (0 to 100 scale))
100%: pest or weed control at 250 g/ha [3]
80%: pest or weed control at 31 g/ha ([5]; Postemergence, 31 g ai/ha, visual injury after approx. 10 d, 0 to 100 scale, 0 no effect, 100 complete control, read-out: Plant response rating, Foxtail, Giant) | pest or weed control at 125 g/ha [16, 19]
90%: pest or weed control at 125 g/ha ([5]; 125 g ai/ha, postemergence, visual injury on 0 to 100 scale (0 no effect, 100 complete control), approx. 10 d, read-out: Foxtail, Giant plant response rating) | pest or weed control at 125 g/ha ([6]; 125 g ai/ha, postemergence, visual injury on 0 to 100 scale (0 no effect, 100 complete control), approx. 10 d, read-out: Barnyardgrass plant response rating) | pest or weed control at 31 g/ha ([6]; Postemergence, 31 g ai/ha, visual injury after approx. 10 d, 0 to 100 scale, 0 no effect, 100 complete control, read-out: Plant response rating, Barnyardgrass) | pest or weed control at 31 g/ha ([14]; 31 g ai/ha, Preemergence) | pest or weed control at 125 g/ha [14, 19] | pest or weed control at 31 g/ha ([15]; 31 g ai/ha, Preemergence) | pest or weed control at 125 g/ha [15, 19]
60%: pest or weed control at 125 g/ha ([4]; 125 g ai/ha, postemergence, visual injury vs untreated controls after approx. 10 d, 0 = no effect, 100 = complete control, read-out: Ryegrass, Italian plant response rating (0 to 100 scale)) | pest or weed control at 125 g/ha (Kochia (Kochia scoparia) [17]; [19])
40%: pest or weed control at 125 g/ha ([9]; 125 g ai/ha, postemergence, visual injury on 0 to 100 scale (0 no effect, 100 complete control), approx. 10 d, read-out: Blackgrass plant response rating) | pest or weed control at 125 g/ha ([11]; 125 g ai/ha, postemergence, visual injury on 0 to 100 scale (0 no effect, 100 complete control), approx. 10 d, read-out: Galium plant response rating)
85%: pest or weed control at 250 g/ha [1]
